In PubChem BioAssay AID248 (DTP/NCI, 2004):
Several values for one entry are separate records, joined by “and”; a condition that tells them apart may be missing. Equal values may be shown once. Inconclusive results and toxic doses are left out. No stated cut-off is given here; in the data, active means T/C of 150% or more; inactive means T/C below 125%.

Test system: L1210 leukemia ip in BDF1 mice, survival T/C
Assay: NCI In Vivo Anticancer Drug Screen. Data for tumor model L1210 Leukemia (intraperitoneal) in B6D2F1 (BDF1) mice
Conditions: endpoint: mean survival time, higher = longer survival
In short: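 Antitumor effect is assessed in tumor-bearing animals. Survival in the compound arm is compared with a vehicle-dosed control arm and expressed as their quotient.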

[1] = dose: 100.0 mg/kg/injection, schedule: Q01DX009 (ip), vehicle: saline with Tween-80
[2] = dose: 100.0 mg/kg/injection, schedule: Q04DX003 (ip), vehicle: saline with Tween-80
[3] = dose: 200.0 mg/kg/injection, schedule: Q01DX009 (ip), vehicle: saline with Tween-80
[4] = dose: 200.0 mg/kg/injection, schedule: Q04DX003 (ip), vehicle: saline with Tween-80
[5] = dose: 400.0 mg/kg/injection, schedule: Q01DX009 (ip), vehicle: saline with Tween-80
[6] = dose: 400.0 mg/kg/injection, schedule: Q04DX003 (ip), vehicle: saline with Tween-80
[7] = dose: 100.0 mg/kg/injection, schedule: Q04DX002 (ip), vehicle: other
[8] = dose: 200.0 mg/kg/injection, schedule: Q04DX002 (ip), vehicle: other
[9] = dose: 400.0 mg/kg/injection, schedule: Q04DX002 (ip), vehicle: other
[10] = dose: 100.0 mg/kg/injection, schedule: Q01DX001 (ip), vehicle: carboxymethylcellulose (CMC)
[11] = dose: 200.0 mg/kg/injection, schedule: Q01DX001 (ip), vehicle: carboxymethylcellulose (CMC)
[12] = dose: 400.0 mg/kg/injection, schedule: Q01DX001 (ip), vehicle: carboxymethylcellulose (CMC)
[13] = dose: 50.0 mg/kg/injection, schedule: Q01DX009 (ip), vehicle: saline with Tween-80
[14] = dose: 100.0 mg/kg/injection, schedule: Q04DX002 (ip), vehicle: saline with Tween-80
[15] = dose: 200.0 mg/kg/injection, schedule: Q04DX002 (ip), vehicle: saline with Tween-80
[16] = dose: 400.0 mg/kg/injection, schedule: Q04DX002 (ip), vehicle: saline with Tween-80
[17] = dose: 100.0 mg/kg/injection, schedule: Q04DX002 (ip), vehicle: Klucel (hydroxypropylcellulose) (HPC)
[18] = dose: 200.0 mg/kg/injection, schedule: Q04DX002 (ip), vehicle: Klucel (hydroxypropylcellulose) (HPC)
[19] = dose: 400.0 mg/kg/injection, schedule: Q04DX002 (ip), vehicle: Klucel (hydroxypropylcellulose) (HPC)
[20] = dose: 100.0 mg/kg/injection, schedule: Q01DX009 (ip), vehicle: Klucel (hydroxypropylcellulose) (HPC)
[21] = dose: 200.0 mg/kg/injection, schedule: Q01DX009 (ip), vehicle: Klucel (hydroxypropylcellulose) (HPC)
[22] = dose: 6.25 mg/kg/injection, schedule: Q01DX009 (ip), vehicle: water
[23] = dose: 12.5 mg/kg/injection, schedule: Q01DX009 (ip), vehicle: water
[24] = dose: 400.0 mg/kg/injection, schedule: Q01DX009 (ip), vehicle: Klucel (hydroxypropylcellulose) (HPC)
[25] = dose: 100.0 mg/kg/injection, schedule: Q01DX001 (ip), vehicle: other
[26] = dose: 200.0 mg/kg/injection, schedule: Q01DX001 (ip), vehicle: other
[27] = dose: 400.0 mg/kg/injection, schedule: Q01DX001 (ip), vehicle: other

Measured: T/C

O=C(O)C1CCCCC1C(=O)Nc1ccc(F)cc1 (stereo unspecified)
inactive: [1] 103 % of control | [2] 102 % of control | [3] 90 % of control | [4] 102 % of control | [5] 105 % of control | [6] 96 % of control

CCN(CC)CCOc1ccc(OC)cc1
inactive: dose: 25.0 mg/kg/injection, schedule: Q04DX003 (ip), vehicle: saline 91 % of control | dose: 50.0 mg/kg/injection, schedule: Q01DX009 (ip), vehicle: saline 102 % of control | dose: 50.0 mg/kg/injection, schedule: Q04DX003 (ip), vehicle: saline 115 % of control | dose: 100.0 mg/kg/injection, schedule: Q01DX009 (ip), vehicle: saline 111 % of control | dose: 100.0 mg/kg/injection, schedule: Q04DX003 (ip), vehicle: saline 104 % of control and 121 % of control

C=Cc1c2ccccc2cc2c1ccc1ccccc12
inactive: [7] 102 % of control | [8] 106 % of control | [9] 109 % of control

CC(=O)OC1=C(CC(C)(C)C)C(=O)c2ccccc2C1=O
inactive: dose: 50.0 mg/kg/injection, schedule: Q01DX001 (ip), vehicle: carboxymethylcellulose (CMC) 103 % of control | [10] 103 % of control | [11] 100 % of control | [12] 105 % of control

CCCCCCCCCCCC(=O)NC(=S)Nc1ccc(C(=O)OCC)cc1
inactive: dose: 100.0 mg/kg/injection, schedule: Q04DX002 (ip), vehicle: saline 93 % of control | dose: 200.0 mg/kg/injection, schedule: Q04DX002 (ip), vehicle: saline 108 % of control | dose: 400.0 mg/kg/injection, schedule: Q04DX002 (ip), vehicle: saline 108 % of control

O=C1C=C2CCCCC2C1 (stereo unspecified)
inactive: [13] 100 % of control | [1] 88 % of control

CC1(C)CC2(CC3(C1)SCCS3)SCCS2
inactive: dose: 100.0 mg/kg/injection, schedule: Q01DX001 (ip), vehicle: saline 94 % of control | dose: 100.0 mg/kg/injection, schedule: Q04DX003 (ip), vehicle: acetone 89 % of control | dose: 200.0 mg/kg/injection, schedule: Q01DX001 (ip), vehicle: saline 97 % of control | dose: 200.0 mg/kg/injection, schedule: Q04DX003 (ip), vehicle: acetone 96 % of control | dose: 400.0 mg/kg/injection, schedule: Q01DX001 (ip), vehicle: saline 89 % of control | dose: 400.0 mg/kg/injection, schedule: Q04DX003 (ip), vehicle: acetone 91 % of control

CC(=O)CCP(C)(=O)O
inactive: [14] 95 % of control | [15] 92 % of control | [16] 104 % of control

Cc1ccc(S(=O)(=O)OC2COCOC2C2(OS(=O)(=O)c3ccc(C)cc3)COCOC2)cc1 (stereo unspecified)
inactive: [17] 101 % of control | [18] 101 % of control | [19] 104 % of control

CC(=O)N(CC#CCN(C(C)=O)c1ccccc1)c1ccccc1
inactive: [7] 111 % of control | [8] 105 % of control | [9] 97 % of control

COc1cccc(NC(=O)Oc2ccc(Cl)cc2Cl)c1
inactive: [17] 88 % of control | [18] 88 % of control

CS(=O)(=O)c1nnc(-c2ccccc2)s1
inactive: [13] 93 % of control | [20] 97 % of control | [1] 96 % of control and 90 % of control | [21] 94 % of control | [3] 93 % of control and 90 % of control

N#CCCc1c(O)ccc2ccccc12
inactive: [1] 105 % of control | [3] 102 % of control | [5] 105 % of control

O=C(CI)Nc1ccc(O)c2ccccc12
inactive: dose: 3.12 mg/kg/injection, schedule: Q04DX003 (ip), vehicle: water 111 % of control and 86 % of control | [22] 99 % of control | dose: 6.25 mg/kg/injection, schedule: Q04DX003 (ip), vehicle: water 121 % of control and 91 % of control | [23] 86 % of control | dose: 75.0 mg/kg/injection, schedule: Q04DX003 (ip), vehicle: water 93 % of control

CC(=O)Nc1cc(Cl)c([N+](=O)[O-])cc1C
inactive: [17] 110 % of control | [18] 113 % of control | [19] 103 % of control

CCCCCCCCCCCC(=O)NC(=S)Nc1ccc(C(=O)O)cc1
inactive: dose: 100.0 mg/kg/injection, schedule: Q01DX001 (ip), vehicle: saline with Tween-80 103 % of control | [1] 98 % of control and 101 % of control | [14] 102 % of control and 105 % of control | [2] 101 % of control | dose: 200.0 mg/kg/injection, schedule: Q01DX001 (ip), vehicle: saline with Tween-80 102 % of control | [3] 93 % of control and 103 % of control | [15] 100 % of control and 112 % of control | [4] 98 % of control | dose: 400.0 mg/kg/injection, schedule: Q01DX001 (ip), vehicle: saline with Tween-80 96 % of control | [5] 101 % of control and 92 % of control | [16] 103 % of control and 115 % of control | [6] 101 % of control

CC(=O)Nc1ccccc1I
inactive: [20] 104 % of control | [21] 96 % of control | [24] 95 % of control

CC(=O)Nc1cc(Cl)c(Cl)cc1Cl
inactive: [2] 103 % of control | [4] 102 % of control | [6] 96 % of control

Cc1ccc(S(=O)(=O)ON/N=C2\C(=O)C3CCC2C3)cc1 (stereo unspecified)
inactive: [14] 95 % of control

O=S(=O)(Nc1ncccn1)c1ccc(N=NSC2=NC=NC3=NC=NC32)cc1 (stereo unspecified)
inactive: [25] 104 % of control | [26] 124 % of control | [27] 106 % of control

COc1ccc(NC(=O)Oc2ccc(F)cc2Cl)c(OC)c1
inactive: [20] 97 % of control | [21] 95 % of control | [24] 101 % of control

C/C(=C\c1ccccc1)C(=O)c1ccccc1
inactive: [22] 109 % of control | [23] 107 % of control | dose: 25.0 mg/kg/injection, schedule: Q01DX009 (ip), vehicle: water 101 % of control and 91 % of control | dose: 50.0 mg/kg/injection, schedule: Q01DX009 (ip), vehicle: water 95 % of control and 112 % of control | [20] 93 % of control | dose: 100.0 mg/kg/injection, schedule: Q01DX009 (ip), vehicle: other 113 % of control | dose: 100.0 mg/kg/injection, schedule: Q01DX009 (ip), vehicle: water 101 % of control and 106 % of control | [17] 100 % of control | dose: 100.0 mg/kg/injection, schedule: Q04DX003 (ip), vehicle: other 101 % of control | [21] 98 % of control | dose: 200.0 mg/kg/injection, schedule: Q01DX009 (ip), vehicle: other 101 % of control | dose: 200.0 mg/kg/injection, schedule: Q01DX009 (ip), vehicle: water 104 % of control and 107 % of control | [18] 92 % of control | dose: 200.0 mg/kg/injection, schedule: Q04DX003 (ip), vehicle: other 101 % of control | [24] 105 % of control | dose: 400.0 mg/kg/injection, schedule: Q01DX009 (ip), vehicle: other 108 % of control | dose: 400.0 mg/kg/injection, schedule: Q01DX009 (ip), vehicle: water 106 % of control | [19] 95 % of control | dose: 400.0 mg/kg/injection, schedule: Q04DX003 (ip), vehicle: other 100 % of control

Oc1ccccc1C=Nc1ccccc1O.[Zn+2]
inactive: [25] 94 % of control | [26] 91 % of control | [27] 91 % of control

O=C1CC(N2CC2)C(=O)N1c1ccccc1 (stereo unspecified)
inactive: [20] 104 % of control | dose: 100.0 mg/kg/injection, schedule: Q04DX003 (ip), vehicle: Klucel (hydroxypropylcellulose) (HPC) 105 % of control | [21] 92 % of control | dose: 200.0 mg/kg/injection, schedule: Q04DX003 (ip), vehicle: Klucel (hydroxypropylcellulose) (HPC) 113 % of control | dose: 400.0 mg/kg/injection, schedule: Q04DX003 (ip), vehicle: Klucel (hydroxypropylcellulose) (HPC) 88 % of control

COc1ccc(CCNC(=O)Cc2ccc(O)cc2)cc1OC
inactive: [10] 100 % of control | [11] 102 % of control | [12] 96 % of control
